Test results from paper PMC5845004, “Novel (p)ppGpp Binding and Metabolizing Proteins of Escherichia coli” (mBio, 2018).

Key:
UshA = target: T1, UshA (Escherichia coli, UniProt P07024); test: DRaCALA competition assay, lysate with overexpressed UshA; assay type: binding; conditions: cell lysate, 2 nM hot (p)ppGpp, 100 µM cold competitor
T1 sequence (P07024 26-550): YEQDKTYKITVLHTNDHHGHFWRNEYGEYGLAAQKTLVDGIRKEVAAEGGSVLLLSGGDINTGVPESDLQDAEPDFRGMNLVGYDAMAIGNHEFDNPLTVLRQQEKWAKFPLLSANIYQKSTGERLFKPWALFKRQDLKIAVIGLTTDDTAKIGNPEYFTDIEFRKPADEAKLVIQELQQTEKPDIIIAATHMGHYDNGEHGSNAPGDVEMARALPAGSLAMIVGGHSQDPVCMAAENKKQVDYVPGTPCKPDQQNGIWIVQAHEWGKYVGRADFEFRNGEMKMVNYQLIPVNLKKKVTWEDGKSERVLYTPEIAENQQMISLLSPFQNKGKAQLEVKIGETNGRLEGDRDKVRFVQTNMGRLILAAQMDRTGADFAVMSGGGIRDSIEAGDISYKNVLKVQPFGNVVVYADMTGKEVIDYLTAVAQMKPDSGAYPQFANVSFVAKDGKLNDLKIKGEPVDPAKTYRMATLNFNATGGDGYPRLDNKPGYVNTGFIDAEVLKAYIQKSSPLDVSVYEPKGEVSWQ
Description: (§1) Bacterial cells were collected and frozen at −80°C.

Der = Der (Escherichia coli, UniProt P0A6P5); test: DRaCALA Kd determination, purified Der; assay type: binding, E. coli; conditions: 2 nM 32P-labeled ligand, read-out: apparent Kd, Der
Description: (§4) For Kd measurements by DRaCALA, 2-fold serial dilutions from the highest possible concentrations of each purified protein were prepared in binding buffer B, and approximately 2 nM concentrations of α-^32P-labeled ppGpp, pppGpp, GTP, and GDP were added. The mixtures were incubated for 5 min at RT before spotting of 2 µl of the reaction mixtures onto nitrocellulose membranes. […] For competition assays, purified proteins at the specified concentrations were incubated with 2 nM [α-^32P]ppGpp or [α-^32P]pppGpp in the presence of 100 μM competitor nucleotides in binding buffer B. The reaction mixtures were incubated for 5 min at RT, 2 µl was spotted onto nitrocellulose membranes, and the values corresponding to the bound fractions were determined. EDTA was added at excess concentrations as specified for each case.

NudG [1] = target: T2, NudG (Escherichia coli, UniProt P77788); test: DRaCALA competition assay, lysate with overproduced NudG; assay type: binding, E. coli; conditions: whole-cell lysate, 2 nM hot (p)ppGpp, 100 µM cold competitor
T2 construct: expressed in transfected cells; host or cells: E. coli ASKA collection strain, IPTG-induced, whole-cell lysate
Description: as §1

MutT [2] = target: T3, MutT (Escherichia coli, UniProt P08337); conditions: whole-cell lysate, 2 nM hot (p)ppGpp, 100 µM cold competitor
Description: DRaCALA screening was performed essentially as described before ([39]) with minor modifications. Briefly, ASKA collection strains were inoculated into 1.5 ml LB broth with 25 μg/ml chloramphenicol in deep 96-well plates (Greiner) and grown over night at 30°C. IPTG (1 mM) was added the next morning to induce protein expression at 30°C for 6 h. Bacterial cells were collected and frozen at −80°C. To lyse cells, 150 μl buffer B with 2 mM phenylmethylsulfonyl fluoride (PMSF), 40 μg/ml DNase 1, and 0.5 mg/ml lysozyme was used to resuspend cell pellets and then subjected to three freeze-thaw cycles before Benzonase (Sigma) (2.5 U/well) was added to reduce lysate viscosity. A 20-μl volume of lysate was transferred into a 96-well V-bottom plate (Sterilin), incubated at 37°C for 15 min, and placed on ice. […] Membranes were dried for 10 min at RT, and binding signals were exposed to a BAS IP screen (GE Healthcare) and detected by the use of a Typhoon FLA-7000 PhosphorImager.
For competition assays, purified proteins at the specified concentrations were incubated with 2 nM [α-^32P]ppGpp or [α-^32P]pppGpp in the presence of 100 μM competitor nucleotides in binding buffer B. The reaction mixtures were incubated for 5 min at RT, 2 µl was spotted onto nitrocellulose membranes, and the values corresponding to the bound fractions were determined.

MutT [3] = target: T3, MutT; test: In vitro cleavage assay (TLC), MutT; assay type: biochemical, E. coli; conditions: 1 µM MutT, 10 nM hot ppGpp, 100 µM competitor, 30°C, up to 1 h
Description: (§2) The purified His6-MutT and His6-NudG proteins were tested for their relative levels of cleavage of ppGpp compared to those seen with their native substrates. For this, a 1 μM concentration of each protein and a 10 nM concentration of [α-^32P]ppGpp were used together with 100 μM concentrations of cold competitors [ppGpp, GTP, ATP, 8-oxo-(d)GTP, 2-hydroxyl-(d)ATP] or 50 mM EDTA in buffer B. The samples were incubated at 30°C for 10 min and for 1 h before the reactions were stopped by adding 50 mM EDTA. The cleavage products were resolved by TLC as described above. The purified His6-NadR and His6-TrmE proteins were tested for their cleavage of both GTP and ppGpp. For cleavage of GTP, 10 μM concentrations of His6-MBP, His6-TrmE, and 20 μM His6-NadR proteins were used with 2 nM [α-^32P]GTP and 100 μM cold GTP in buffer B. For cleavage of ppGpp, 10 μM concentrations of His6-TrmE, His6-MBP, and His6-NadR proteins were used with 10 nM [α-^32P]ppGpp in buffer B. Of note, for His6-TrmE, another reaction was also performed in buffer B supplemented with 100 mM KCl. The reactions were performed at RT for 10 min and were stopped by adding 17% formic acid. The cleavage products were resolved by TLC as described above.
(§3) A 20 μM concentration of each of purified proteins MutT, NudG, NadR, TrmE, and MBP (as a negative control) was incubated with 100 μM ppGpp in buffer B (containing 40 mM Tris [pH 7.5], 100 mM NaCl, and 10 mM MgCl2) for 20 min at room temperature. Samples were snap-frozen on dry ice and analyzed with UPLC-MS afterward. All samples and buffers were stored at −80°C, thawed on ice, and kept at 4°C during analysis. For the analysis, a UPLC-quadrupole time of flight (UPLC-qTOF) method (Waters) was used. Analysis conditions were as follows: column, zic-HILIC (Merck Millipore) (150 by 2.1 mm, […], gradient elution, flow rate set to 0.3 ml/min); mobile phase A, 10 mM ammonium acetate (pH 5); mobile phase B, 90% acetonitrile with 10 mM ammonium acetate (pH 5). The gradient was set up as follows: min 0 to 2, 80% B; min 2 to 16, 80% B to 50% B; hold until min 20; injection volume, 4 µl. The detection conditions were as follows: photodiode array detector (PDA), […] (evaluated at 260 nm); MS, ionization; electrospray ionization (ESI+), scan, 200 to 800 m/z with lock mass correction. Analytes were identified by their accurate mass and retention time data for a known standard dissolved in used buffer (for the chemicals of the same nominal masses). These standards were either synthesized and their structures confirmed by nuclear magnetic resonance (NMR) (for ppGp, pGpp, and pGp) or purchased (ppGpp was purchased from Jena Biocsience and GTP from Sigma-Aldrich).

Hpt = Hpt (Escherichia coli, UniProt P0A9M2); test: DRaCALA competition assay, Hpt; assay type: binding, E. coli; conditions: 20 µM Hpt, 2 nM hot ppGpp, 100 µM cold competitor
Description: For Kd measurements by DRaCALA, 2-fold serial dilutions from the highest possible concentrations of each purified protein were prepared in binding buffer B, and approximately 2 nM concentrations of α-^32P-labeled ppGpp, pppGpp, GTP, and GDP were added. The mixtures were incubated for 5 min at RT before spotting of 2 µl of the reaction mixtures onto nitrocellulose membranes. The fractions of bound ligand and the apparent Kd values were calculated as previously described ([37]). For competition assays, purified proteins at the specified concentrations were incubated with 2 nM [α-^32P]ppGpp or [α-^32P]pppGpp in the presence of 100 μM competitor nucleotides in binding buffer B. The reaction mixtures were incubated for 5 min at RT, 2 µl was spotted onto nitrocellulose membranes, and the values corresponding to the bound fractions were determined. EDTA was added at excess concentrations as specified for each case.

NudG [4] = target: T2, NudG; test: In vitro cleavage assay (TLC), NudG; assay type: biochemical, E. coli; conditions: 1 µM NudG, 10 nM hot ppGpp, 100 µM competitor, 30°C
Description: as §2, §3

YgdH [5] = target: T4, YgdH (Escherichia coli, UniProt P0ADR8); test: DRaCALA competition assay, YgdH; assay type: binding, E. coli; conditions: 50 µM YgdH, 100 µM cold competitor, without or with 1.5 mM magnesium
Description: as §4

SaDer = SaDer (Staphylococcus aureus, UniProt A6QH24); test: DRaCALA Kd determination, SaDer; assay type: binding, S. aureus
Description: (§5) For Kd measurements by DRaCALA, 2-fold serial dilutions from the highest possible concentrations of each purified protein were prepared in binding buffer B, and approximately 2 nM concentrations of α-^32P-labeled ppGpp, pppGpp, GTP, and GDP were added. The mixtures were incubated for 5 min at RT before spotting of 2 µl of the reaction mixtures onto nitrocellulose membranes. The fractions of bound ligand and the apparent Kd values were calculated as previously described ([37]).

RF3 (PrfC) = RF3 (PrfC) (Escherichia coli, UniProt P0A7I4); test: DRaCALA Kd determination, purified RF3; assay type: binding, E. coli; conditions: 2 nM 32P-labeled ligand, read-out: apparent Kd, RF3 (PrfC)
Description: as §5

HypB = HypB (Escherichia coli, UniProt P0AAN3); test: DRaCALA Kd determination, purified HypB; assay type: binding, E. coli; conditions: 2 nM 32P-labeled ligand, read-out: apparent Kd, HypB
Description: as §4

TrmE [6] = target: T5, TrmE (Escherichia coli, UniProt P25522); test: DRaCALA Kd determination, purified TrmE; assay type: binding, E. coli; conditions: in the presence of magnesium, read-out: apparent Kd, TrmE
Description: as §4

YgdH [7] = target: T4, YgdH; test: DRaCALA binding and Kd determination, purified YgdH; parameters: species or system E. coli; conditions: DRaCALA, in the presence of EDTA (without Mg2+); read-out: Kd, YgdH + EDTA (converted)
Description: as §4

TrmE [8] = target: T5, TrmE; test: In vitro cleavage assay (TLC), TrmE; assay type: biochemical, E. coli; conditions: 10 µM TrmE, buffer B, with 100 mM potassium where stated, 10 min
Description: as §2
A 20 μM concentration of each of purified proteins MutT, NudG, NadR, TrmE, and MBP (as a negative control) was incubated with 100 μM ppGpp in buffer B (containing 40 mM Tris [pH 7.5], 100 mM NaCl, and 10 mM MgCl2) for 20 min at room temperature. Samples were snap-frozen on dry ice and analyzed with UPLC-MS afterward. All samples and buffers were stored at −80°C, thawed on ice, and kept at 4°C during analysis. For the analysis, a UPLC-quadrupole time of flight (UPLC-qTOF) method (Waters) was used. […] The detection conditions were as follows: photodiode array detector (PDA), […] (evaluated at 260 nm); MS, ionization; electrospray ionization (ESI+), scan, 200 to 800 m/z with lock mass correction. […]

[9] = target: the molecule itself; test: SEC; size exclusion FPLC profile of purified His6-YgdH (53 kDa) compared with protein standards

T3 sequence (P08337 whole entry): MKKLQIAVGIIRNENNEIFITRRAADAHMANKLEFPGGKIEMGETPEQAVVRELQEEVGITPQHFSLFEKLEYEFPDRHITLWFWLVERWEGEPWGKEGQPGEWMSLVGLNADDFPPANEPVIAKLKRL
T2 sequence (P77788 whole entry): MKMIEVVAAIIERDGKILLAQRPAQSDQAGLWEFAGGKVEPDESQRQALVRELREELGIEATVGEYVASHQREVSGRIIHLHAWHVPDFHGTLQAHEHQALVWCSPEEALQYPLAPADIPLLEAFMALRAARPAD
Sequence of Der (P0A6P5 whole entry): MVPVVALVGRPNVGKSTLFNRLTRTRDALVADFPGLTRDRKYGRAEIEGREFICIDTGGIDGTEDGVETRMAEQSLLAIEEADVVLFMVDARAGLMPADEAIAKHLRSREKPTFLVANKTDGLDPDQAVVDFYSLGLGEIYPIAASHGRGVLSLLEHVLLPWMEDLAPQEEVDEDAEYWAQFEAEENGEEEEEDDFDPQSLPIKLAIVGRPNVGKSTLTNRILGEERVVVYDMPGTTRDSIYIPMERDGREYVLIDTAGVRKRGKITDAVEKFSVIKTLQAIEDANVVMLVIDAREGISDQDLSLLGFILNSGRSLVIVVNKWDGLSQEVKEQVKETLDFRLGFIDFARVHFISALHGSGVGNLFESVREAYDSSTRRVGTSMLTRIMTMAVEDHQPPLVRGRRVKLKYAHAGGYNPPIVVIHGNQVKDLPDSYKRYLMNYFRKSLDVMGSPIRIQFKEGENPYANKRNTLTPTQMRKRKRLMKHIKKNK
T5 sequence (P25522 whole entry): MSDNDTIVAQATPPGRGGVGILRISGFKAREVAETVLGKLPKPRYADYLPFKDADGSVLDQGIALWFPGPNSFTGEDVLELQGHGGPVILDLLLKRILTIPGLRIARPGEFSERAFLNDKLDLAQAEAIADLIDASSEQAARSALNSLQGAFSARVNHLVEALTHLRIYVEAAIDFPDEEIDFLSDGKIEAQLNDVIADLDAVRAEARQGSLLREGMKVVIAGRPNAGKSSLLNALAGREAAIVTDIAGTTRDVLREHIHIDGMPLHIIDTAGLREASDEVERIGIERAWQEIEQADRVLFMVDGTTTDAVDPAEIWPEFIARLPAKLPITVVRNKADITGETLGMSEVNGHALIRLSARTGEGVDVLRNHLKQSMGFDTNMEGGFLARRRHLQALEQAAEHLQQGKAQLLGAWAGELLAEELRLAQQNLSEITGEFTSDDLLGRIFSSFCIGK
Sequence of RF3 (PrfC) (P0A7I4 whole entry): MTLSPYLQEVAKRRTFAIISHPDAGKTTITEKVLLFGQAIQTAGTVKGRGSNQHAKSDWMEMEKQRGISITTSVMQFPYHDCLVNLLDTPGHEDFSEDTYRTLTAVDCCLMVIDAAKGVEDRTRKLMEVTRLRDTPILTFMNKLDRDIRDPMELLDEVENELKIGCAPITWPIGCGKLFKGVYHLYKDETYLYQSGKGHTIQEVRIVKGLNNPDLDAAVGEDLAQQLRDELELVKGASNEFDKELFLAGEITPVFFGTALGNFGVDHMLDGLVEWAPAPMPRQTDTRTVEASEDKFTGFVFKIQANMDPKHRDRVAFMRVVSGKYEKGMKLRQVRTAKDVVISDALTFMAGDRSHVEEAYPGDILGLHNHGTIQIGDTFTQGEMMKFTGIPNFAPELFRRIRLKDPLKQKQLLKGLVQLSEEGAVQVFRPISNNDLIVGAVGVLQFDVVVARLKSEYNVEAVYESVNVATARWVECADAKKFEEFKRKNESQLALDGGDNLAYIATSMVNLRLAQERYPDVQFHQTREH
Sequence of SaDer (A6QH24 whole entry): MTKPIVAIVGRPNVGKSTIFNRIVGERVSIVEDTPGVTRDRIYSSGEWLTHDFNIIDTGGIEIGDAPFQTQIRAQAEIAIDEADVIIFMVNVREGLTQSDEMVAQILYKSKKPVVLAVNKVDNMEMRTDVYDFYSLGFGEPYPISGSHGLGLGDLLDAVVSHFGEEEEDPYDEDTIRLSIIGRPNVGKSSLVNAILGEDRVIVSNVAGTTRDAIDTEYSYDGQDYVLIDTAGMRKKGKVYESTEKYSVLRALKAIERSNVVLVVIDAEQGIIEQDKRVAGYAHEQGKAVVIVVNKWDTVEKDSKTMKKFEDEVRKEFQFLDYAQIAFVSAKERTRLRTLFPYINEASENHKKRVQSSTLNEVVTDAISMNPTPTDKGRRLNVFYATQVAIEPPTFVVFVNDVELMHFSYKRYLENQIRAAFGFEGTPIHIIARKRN
Sequence of HypB (P0AAN3 whole entry): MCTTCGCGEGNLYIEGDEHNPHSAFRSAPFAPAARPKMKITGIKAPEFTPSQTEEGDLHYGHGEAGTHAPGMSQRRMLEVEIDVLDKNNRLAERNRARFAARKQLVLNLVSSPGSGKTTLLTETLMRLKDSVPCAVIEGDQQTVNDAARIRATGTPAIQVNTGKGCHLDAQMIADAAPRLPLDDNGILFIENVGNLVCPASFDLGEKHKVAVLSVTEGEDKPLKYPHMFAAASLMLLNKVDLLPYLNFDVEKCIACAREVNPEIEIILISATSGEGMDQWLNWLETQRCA
Sequence of Hpt (P0A9M2 whole entry): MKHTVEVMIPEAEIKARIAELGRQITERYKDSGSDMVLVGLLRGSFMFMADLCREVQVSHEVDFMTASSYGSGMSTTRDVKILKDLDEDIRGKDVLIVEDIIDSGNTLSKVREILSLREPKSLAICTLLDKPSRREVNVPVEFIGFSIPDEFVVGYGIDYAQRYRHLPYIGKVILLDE

Molecule: Nc1nc2c(ncn2[C@@H]2O[C@H](COP(=O)(O)OP(=O)(O)O)[C@@H](O)[C@H]2O)c(=O)[nH]1 [GDP]
- competition for UshA-bound (p)ppGpp (UshA): but not the structurally very similar GTP and GDP
- Kd (Der): 1.3 ± 0.1 µM
- competition for NudG-bound (p)ppGpp (NudG [1]): but not the structurally very similar GTP and GDP

Molecule: 8-oxo-(d)GTP
- competition for MutT-bound (p)ppGpp (MutT [2]): completely outcompete
- inhibition of [α-32P]ppGpp cleavage by MutT (MutT [3]): totally inhibited

Molecule: O=P(O)(O)OC[C@H]1OC(OP(=O)(O)OP(=O)(O)O)[C@H](O)[C@@H]1O (stereo partly shown) [PRPP, phosphoribosyl pyrophosphate]
- competition for bound [α-32P]ppGpp on Hpt (Hpt): partially outcompete

Molecule: 2-OH-(d)ATP
- competition for NudG-bound (p)ppGpp (NudG [1]): comparable to unlabeled ppGpp
- inhibition of [α-32P]ppGpp cleavage by NudG (NudG [4]): slightly better than ppGpp

Molecule: Nc1ncnc2c1ncn2[C@@H]1O[C@H](COP(=O)(O)O)[C@@H](O)[C@H]1O [AMP]
- competition for [α-32P]ppGpp binding to YgdH by YgdH substrates (YgdH [5]): none of them could outcompete ppGpp

Molecule: Nc1nc2c(ncn2[C@@H]2O[C@H](COP(=O)(O)O)[C@@H](O)[C@H]2O)c(=O)[nH]1 [GMP]
- competition for [α-32P]ppGpp binding to YgdH by YgdH substrates (YgdH [5]): none of them could outcompete ppGpp

Molecule: Nc1ncnc2c1ncn2[C@@H]1O[C@H](COP(=O)(O)OP(=O)(O)OP(=O)(O)O)[C@@H](O)[C@H]1O [ATP]
- competition for NudG-bound (p)ppGpp (NudG [1]): did not compete

Molecule: Nc1nc2c(ncn2[C@@H]2O[C@H](COP(=O)(O)OP(=O)(O)OP(=O)(O)O)[C@@H](O)[C@H]2O)c(=O)[nH]1 [GTP]
- Kd (SaDer): 3.5 ± 0.8 µM
- competition for UshA-bound (p)ppGpp (UshA): but not the structurally very similar GTP and GDP
- Kd (RF3 (PrfC)): 29.3 ± 9.8 µM
- Kd (Der): 13.7 ± 7.1 µM
- Kd (HypB): 9 ± 1.8 µM
- Kd (TrmE [6]): 4.6 ± 1.1 µM
- inhibition of [α-32P]ppGpp cleavage by MutT (MutT [3]): very limited inhibitory effects
- Kd (YgdH [7]): 21.4 ± 11.5 µM
- competition for NudG-bound (p)ppGpp (NudG [1]): but not the structurally very similar GTP and GDP
- cleavage by TrmE (TrmE [8]): converted almost all GTP

B1: YgdH (ECK2790), His6-YgdH (enzyme, E. coli K-12, UniProt P0ADR8 1-454, looked up)
chain: MITHISPLGSMDMLSQLEVDMLKRTASSDLYQLFRNCSLAVLNSGSLTDNSKELLSRFENFDINVLRRERGVKLELINPPEEAFVDGRIIRALQANLFAVLRDILFVYGQIHNTVRFPNLNLDNSVHITNLVFSILRNARALHVGEAPNMVVCWGGHSINENEYLYARRVGNQLGLRELNICTGCGPGAMEAPMKGAAVGHAQQRYKDSRFIGMTEPSIIAAEPPNPLVNELIIMPDIEKRLEAFVRIAHGIIIFPGGVGTAEELLYLLGILMNPANKDQVLPLILTGPKESADYFRVLDEFVVHTLGENARRHYRIIIDDAAEVARQMKKSMPLVKENRRDTGDAYSFNWSMRIAPDLQMPFEPSHENMANLKLYPDQPVEVLAADLRRAFSGIVAGNVKEVGIRAIEEFGPYKINGDKEIMRRMDDLLQGFVAQHRMKLPGSAYIPCYEICT
notes: YgdH (ECK2790), nucleotide nucleosidase of E. coli K-12, expressed from the ASKA plasmid library (pCA24N vector); The ASKA clone carries the gene of E. coli K-12; The printed size of His6-YgdH is 53 kDa; source: E. coli ASKA collection AG1 strain, purified (Ni-NTA, size exclusion chromatography); not shown: His6, N-terminal, kept
- stoichiometry N [9]: 4
